Earlier results as cited in patent US10882883B2, “Derivatives of amphotericin B” (Sfunga Therapeutics, Inc., priority 2015, dated 2021).

What was measured:
yeast = settings: in vitro studies; WO 2014/165676
[1] = Wilcock et al., J Am Chem Soc 135: 8488-91 (2013)
[2] = Wilcock et al., J Am Chem Soc 135: 8488-91 (2013); remark: listed apart in the source

Structure (SMILES): CC1C=CC=CC=CC=CC=CC=CC=CC(OC2CC(N)C(O)C(C)O2)CC2OC(O)(CC(O)CC(O)C(O)CCC(O)CC(O)CC(=O)OC(C)C(C)C1O)CC(O)C2C(=O)O (stereo not drawn) [C2′deOAmB]
- toxicity to yeast (yeast): toxic to yeast
- ergosterol-binding ability [1]: retains ergosterol-binding ability
- binding to cholesterol [2]: no binding to cholesterol
